From PubChem BioAssay AID248 (DTP/NCI, 2004)
Values joined by “and” are separate entries in the source; they are usually repeats but may differ in a detail not shown here. Equal values may be shown once. Inconclusive results and toxic doses are left out. Rule as the data show it: active = T/C of 150% or more; inactive = T/C below 125%.

Test system: L1210 leukemia ip in BDF1 mice, survival T/C
Assay: NCI In Vivo Anticancer Drug Screen. Data for tumor model L1210 Leukemia (intraperitoneal) in B6D2F1 (BDF1) mice
Conditions: endpoint: mean survival time, higher = longer survival
Procedure, shortened: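 Transplanted-tumor mice were given test agent; controls received vehicle only. Survival readings from the two groups were divided (treated over control).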

[1] = dose: 100.0 mg/kg/injection, schedule: Q01DX001 (ip), vehicle: saline with Tween-80
[2] = dose: 100.0 mg/kg/injection, schedule: Q04DX003 (ip), vehicle: saline with Tween-80
[3] = dose: 200.0 mg/kg/injection, schedule: Q01DX001 (ip), vehicle: saline with Tween-80
[4] = dose: 200.0 mg/kg/injection, schedule: Q04DX003 (ip), vehicle: saline with Tween-80
[5] = dose: 400.0 mg/kg/injection, schedule: Q01DX001 (ip), vehicle: saline with Tween-80
[6] = dose: 400.0 mg/kg/injection, schedule: Q04DX003 (ip), vehicle: saline with Tween-80
[7] = dose: 100.0 mg/kg/injection, schedule: Q01DX001 (ip), vehicle: Klucel (hydroxypropylcellulose) (HPC)
[8] = dose: 100.0 mg/kg/injection, schedule: Q04DX003 (ip), vehicle: Klucel (hydroxypropylcellulose) (HPC)
[9] = dose: 100.0 mg/kg/injection, schedule: Q01DX001 (ip), vehicle: carboxymethylcellulose (CMC)
[10] = dose: 100.0 mg/kg/injection, schedule: Q01DX009 (ip), vehicle: saline with Tween-80
[11] = dose: 200.0 mg/kg/injection, schedule: Q01DX009 (ip), vehicle: saline with Tween-80
[12] = dose: 400.0 mg/kg/injection, schedule: Q01DX009 (ip), vehicle: saline with Tween-80
[13] = dose: 200.0 mg/kg/injection, schedule: Q04DX003 (ip), vehicle: Klucel (hydroxypropylcellulose) (HPC)
[14] = dose: 400.0 mg/kg/injection, schedule: Q04DX003 (ip), vehicle: Klucel (hydroxypropylcellulose) (HPC)

Measured: T/C

CCCCN(C)N=Nc1cn(C2OC(CO)C(O)C2O)c(=O)[nH]c1=O (centres undefined)
inactive: dose: 100.0 mg/kg/injection, schedule: Q01DX009 (ip), vehicle: water 112 % of control | dose: 100.0 mg/kg/injection, schedule: Q04DX003 (ip), vehicle: water 96 % of control | dose: 200.0 mg/kg/injection, schedule: Q01DX009 (ip), vehicle: water 106 % of control | dose: 200.0 mg/kg/injection, schedule: Q04DX003 (ip), vehicle: water 102 % of control | dose: 400.0 mg/kg/injection, schedule: Q01DX009 (ip), vehicle: water 117 % of control | dose: 400.0 mg/kg/injection, schedule: Q04DX003 (ip), vehicle: water 107 % of control

Nc1ccnc2n[nH]nc12
inactive: [1] 111 % of control | [2] 101 % of control | [3] 110 % of control | [4] 100 % of control | [5] 104 % of control | [6] 103 % of control

CC(C)NC(=O)CN=NNc1nc[nH]c1C(N)=O
inactive: dose: 25.0 mg/kg/injection, schedule: Q01DX001 (ip), vehicle: Klucel (hydroxypropylcellulose) (HPC) 95 % of control | dose: 25.0 mg/kg/injection, schedule: Q04DX003 (ip), vehicle: Klucel (hydroxypropylcellulose) (HPC) 99 % of control | dose: 50.0 mg/kg/injection, schedule: Q01DX001 (ip), vehicle: Klucel (hydroxypropylcellulose) (HPC) 100 % of control | dose: 50.0 mg/kg/injection, schedule: Q04DX003 (ip), vehicle: Klucel (hydroxypropylcellulose) (HPC) 94 % of control | [7] 97 % of control | [8] 101 % of control

O=C1N(O)C23CCCC(Br)C2ON=C3C12CCCCC2 (centres undefined)
inactive: [1] 112 % of control | [2] 106 % of control | [3] 112 % of control | [4] 98 % of control | [5] 104 % of control | [6] 95 % of control

CCOP(=O)(OCC)ON=C(Cl)Cl
inactive: dose: 0.78 mg/kg/injection, schedule: Q01DX009 (ip), vehicle: saline 97 % of control | dose: 0.78 mg/kg/injection, schedule: Q04DX002 (ip), vehicle: saline 101 % of control | dose: 1.56 mg/kg/injection, schedule: Q01DX009 (ip), vehicle: saline 97 % of control | dose: 1.56 mg/kg/injection, schedule: Q04DX002 (ip), vehicle: saline 98 % of control | dose: 3.12 mg/kg/injection, schedule: Q01DX009 (ip), vehicle: Klucel (hydroxypropylcellulose) (HPC) 95 % of control | dose: 3.12 mg/kg/injection, schedule: Q01DX009 (ip), vehicle: saline 93 % of control | dose: 3.12 mg/kg/injection, schedule: Q04DX002 (ip), vehicle: saline 101 % of control and 92 % of control | dose: 4.6 mg/kg/injection, schedule: Q01DX009 (ip), vehicle: Klucel (hydroxypropylcellulose) (HPC) 105 % of control | dose: 7.0 mg/kg/injection, schedule: Q01DX009 (ip), vehicle: Klucel (hydroxypropylcellulose) (HPC) 96 % of control

CCOC(=O)c1ccc(NC(=O)Nc2ccc(Cl)cc2[N+](=O)[O-])cc1
inactive: dose: 100.0 mg/kg/injection, schedule: Q01DX009 (ip), vehicle: Klucel (hydroxypropylcellulose) (HPC) 95 % of control and 92 % of control | dose: 200.0 mg/kg/injection, schedule: Q01DX009 (ip), vehicle: Klucel (hydroxypropylcellulose) (HPC) 92 % of control | dose: 400.0 mg/kg/injection, schedule: Q01DX009 (ip), vehicle: Klucel (hydroxypropylcellulose) (HPC) 88 % of control and 92 % of control

COC1=C(OC)C(=O)c2c(c(=O)c3ccccc3n2C)C1=O
inactive: dose: 25.0 mg/kg/injection, schedule: Q01DX001 (ip), vehicle: carboxymethylcellulose (CMC) 104 % of control | dose: 50.0 mg/kg/injection, schedule: Q01DX001 (ip), vehicle: carboxymethylcellulose (CMC) 95 % of control | [9] 101 % of control

CCOC(=O)CCc1c(C)c2cc(C(C)=O)c(O)cc2oc1=O
inactive: [9] 89 % of control | dose: 200.0 mg/kg/injection, schedule: Q01DX001 (ip), vehicle: carboxymethylcellulose (CMC) 94 % of control | dose: 400.0 mg/kg/injection, schedule: Q01DX001 (ip), vehicle: carboxymethylcellulose (CMC) 103 % of control

CCC1(c2ccccc2)C(=O)N(CCl)C(=O)N(CCl)C1=O
inactive: [10] 93 % of control | dose: 100.0 mg/kg/injection, schedule: Q04DX002 (ip), vehicle: saline with Tween-80 103 % of control | [11] 87 % of control | dose: 200.0 mg/kg/injection, schedule: Q04DX002 (ip), vehicle: saline with Tween-80 92 % of control | [12] 90 % of control | dose: 400.0 mg/kg/injection, schedule: Q04DX002 (ip), vehicle: saline with Tween-80 95 % of control

COC(=O)c1oc(C(=O)OC)c(OCc2ccccc2)c1OCc1ccccc1
inactive: [8] 103 % of control | [13] 106 % of control | [14] 95 % of control

CCOC(=S)c1ccc(NS(=O)(=O)c2ccc(C)cc2)cc1
inactive: [1] 100 % of control | [3] 107 % of control | [5] 102 % of control

O=S(=O)(Nc1ccc(Br)c2ccccc12)c1ccccc1
inactive: dose: 25.0 mg/kg/injection, schedule: Q01DX001 (ip), vehicle: saline sonified 97 % of control | dose: 50.0 mg/kg/injection, schedule: Q01DX001 (ip), vehicle: saline sonified 92 % of control | dose: 100.0 mg/kg/injection, schedule: Q01DX001 (ip), vehicle: saline sonified 92 % of control

COc1ccc(C23CCCC(=O)C2C2C(=O)CCCC23c2ccc(OC)cc2)cc1 (centres undefined)
inactive: [7] 100 % of control | [8] 100 % of control | dose: 200.0 mg/kg/injection, schedule: Q01DX001 (ip), vehicle: Klucel (hydroxypropylcellulose) (HPC) 97 % of control | [13] 101 % of control | dose: 400.0 mg/kg/injection, schedule: Q01DX001 (ip), vehicle: Klucel (hydroxypropylcellulose) (HPC) 100 % of control | [14] 95 % of control

O[Si](O)([O][Sn]([c]1ccccc1)([c]1ccccc1)[c]1ccccc1)[O][Sn]([c]1ccccc1)([c]1ccccc1)[c]1ccccc1
inactive: dose: 25.0 mg/kg/injection, schedule: Q01DX009 (ip), vehicle: saline with Tween-80 106 % of control | dose: 50.0 mg/kg/injection, schedule: Q01DX009 (ip), vehicle: saline 96 % of control

Oc1ccc(C=Nc2ccccc2N=Cc2ccc(O)c(O)c2)cc1O
inactive: [10] 105 % of control | [2] 100 % of control | [11] 100 % of control | [4] 96 % of control | [12] 100 % of control | [6] 91 % of control

N=c1ccn(C(=O)C2=Cc3ccccc3OC2)cc1
inactive: dose: 5.0 mg/kg/injection, schedule: Q01DX009 (ip), vehicle: saline with Tween-80 101 % of control | dose: 10.0 mg/kg/injection, schedule: Q01DX009 (ip), vehicle: saline with Tween-80 90 % of control | dose: 10.0 mg/kg/injection, schedule: Q04DX003 (ip), vehicle: saline with Tween-80 100 % of control | dose: 20.0 mg/kg/injection, schedule: Q01DX009 (ip), vehicle: saline with Tween-80 96 % of control | dose: 20.0 mg/kg/injection, schedule: Q04DX003 (ip), vehicle: saline with Tween-80 98 % of control

COC(=O)c1c2c(c3c(c1C(=O)OC)CCC3)CCC2
inactive: dose: 100.0 mg/kg/injection, schedule: Q01DX001 (ip), vehicle: saline 98 % of control | dose: 200.0 mg/kg/injection, schedule: Q01DX001 (ip), vehicle: saline 95 % of control | dose: 400.0 mg/kg/injection, schedule: Q01DX001 (ip), vehicle: saline 92 % of control
